Source: patent US11911346B2, “Orally administrated therapeutic for treating mild cognitive impairment (MCI) and improving human cognitive function” (BrainCare LLC, priority 2021, dated 2024)

System: reasoning and planning of participants with Subjective Cognitive Decline
Experiment: Cambridge Brain Sciences (CBS) Spatial Planning test
Format: in vivo, human
From the text: The Cambridge Brain Sciences (CBS) included a battery of four tests to measure various aspects of cognition and that affected different regions of the brain. Normal scores for each test ranged from 87 to 113.
The first test is the Spatial Planning test, which addresses reasoning and planning. It tests for non-Alzheimer's dementia but has a high correlation with aging. It has a high reproducibility and is useful to distinguish impaired and unimpaired populations. The parts of the brain implicated include: frontal lobe, mid-dorsolateral frontal cortex, caudate nucleus, thalamus, lateral premotor, and anterior cingulate.
The data are presented as mean±standard deviation (S.D.) at baseline, week 4, and week 8. Results from the Cognitive Failures Questionnaire and Cambridge Brain Sciences are compared using the Student's t-test in each intervention group between baseline and week 4 and between baseline and week 8. Significance was defined as p≤0.05. At each time point, the percentage change was compared with the values at baseline. This calculation was only obtained from the means between each time point, and the statistical analysis was not made on these percentage changes.
For Cambridge Brain Sciences tests, some responses were flagged as being a highly unusual response (found in less than 1% of Cambridge Brain Sciences normative database). […] These scores were considered to be invalid and excluded from the final analysis. For each participant, the combined mean scores of all four CBS tests were summed for at baseline and at week 8. The participants were then grouped according to these mean baseline score of all four tests as: below average (less than or equal to 100) and average and above (greater than 100).

[1] = one capsule daily (90 mg BCP), N=26
[2] = two capsules daily (180 mg BCP), N=25

C=C1CC/C=C(\C)CC[C@@H]2[C@@H]1CC2(C)C [BCP, beta-caryophyllene]
Spatial Planning: % of participants with no change between baseline and week 8 [1]: (8%)
Spatial Planning: number of participants improved between baseline and week 8 [1]: 19
Spatial Planning: number of participants with no change between baseline and week 8 [1]: 2
Spatial Planning: number of participants worsened between baseline and week 8 [1]: 5
Spatial Planning actual score (one capsule daily (90 mg BCP), Week 4, normal 87-113): 104 ± 9
Spatial Planning percentage change (one capsule daily (90 mg BCP), Week 8, over 8 weeks): +2.3%
Spatial Planning: % of participants with no change between baseline and week 8 [2]: (8%)
Spatial Planning: number of participants improved between baseline and week 8 [2]: 18
Spatial Planning: number of participants with no change between baseline and week 8 [2]: 2
Spatial Planning: number of participants worsened between baseline and week 8 [2]: 5
